# Test results from patent US20030064954A1, “Cationic amphiphilic 1,4-dihydropyridine derivatives useful for delivery of nucleotide containing compounds” (priority 2000, published 2003).
# “And” between values parts separate entries of the source, which are not always exact repeats. Equal values may be shown once.
# Key:
# D 407 cells = test: Cytotoxicity of amphiphile/DNA complexes, percentage of survived cells; assay type: cell-based, human; parameters: concentration or dose not given beside the values
# [1] = system: CV-1P (African monkey green kidney fibroblasts cells); test: In vitro transfection of plasmid DNA, β-galactosidase activity per well; assay type: cell-based; details: CVI-P; for transfection, result in words: entry spans the charge ratios 8-0.5
# Experimental: Transfer of plasmid DNA by various compounds was investigated by using CV-1P (African monkey green kidney fibroblasts cells) and D407 (human retinal pigment epithelial) cells.
# The cells were cultured in Dulbecco's modified Eagle's medium (DMEM, Gibco), supplemented with 10% fetal bovine serum (FBS), penicillin/streptomycin (100 units/ml and 100 μg/ml respectively) and 2 mM L-glutamine for D 407 cell line. Cell cultures were maintained at 37° C. in a 7% CO2/air incubator. The cells were collected, counted and seeded in growth medium (100 μl) into 96-well culture plate, 20 000 cells per well. One day later the medium was replaced with fresh medium without serum (150 μl)
# In the case of confluent CV1-P cells the medium (with of without serum) was changed on fourth day of cell growth before the transfection.
# The complexes at different derivative/DNA charge ratios for transfection procedure were prepared just before use in 50 mM MES—50 mM HEPES—75 mM NaCl buffer, pH 7.2 in separate 96 well plates. One hour after changing the serum-free medium with 10% serum the complexes were added to the cells at […]. Dose of DNA per well was 0.6 μg. After 5 h the complexes were removed, the cells were washed with PBS, and the normal growth medium was added. After 45 h of incubation at 37° C. the cells were lysed with 2% Triton X 100, twice deep frozen and the β-galactosidase activity in each well was determined spectrofotometrically with ELx800 automated microplate reader (Bio-Tex Instruments Inc., Winooski, Vt. USA) by monitoring the hydrolysis of o-nitrophenylgalactopyranoside (oNPG) at 405 nm. Purified β-galactosidase from E.coli was used to construct a standard curve and to calculate […] activity in the transfected cells. […] Transfection efficiencies are given as percentage in comparison to transfection efficiency of Lipofectin^R.
# CVI-P cells = test: Cytotoxicity of amphiphile/DNA complexes, percentage of survived cells
# plasmid DNA = test: DNA condensation/complexation, EtBr displacement assay; assay type: binding
# Experimental: The ability of the cationic amphiphiles to condense DNA was assessed with an EtBr displacement assay. Briefly, in 96 well plates plasmid DNA (0.6 μg per well) was reacted with 0.002% EtBr in 20 mM HEPES—150 mM NaCl buffer, pH 7.4 and fluorescence intensity was measured at 530 nm (excitation) and 590 nm (emission). Intercalation of EtBr molecules between the base pairs of the DNA double helix results in increased fluorescence signal. Immediately thereafter, the cationic liposomes were added to form complexes at different +/−charge ratios and the quenching of fluorescence intensity of EtBr was monitored. Condensation of DNA upon complexation with liposomes results in the displacement of EtBr from DNA and in decreased fluorescence signal. Fluorescence was measured using FL 500 microplate fluorescence reader (Bio-Tek Instruments Inc., Winooski, Vt., USA).
# The values are expressed as percentage of the maximum fluorescence signal when EtBr bound to DNA in the absence of an amphiphile. Each data point is from at least triplicate experiment ±S.D.
# [2] = system: D407 (human retinal pigment epithelial) cells; test: In vitro transfection of plasmid DNA, β-galactosidase activity per well; assay type: cell-based; details: D 407
# [3] = amphiphile/DNA +/− charge ratio 0.5
# [4] = amphiphile/DNA +/− charge ratio 1
# [5] = amphiphile/DNA +/− charge ratio 2
# [6] = amphiphile/DNA +/− charge ratio 4
# [7] = amphiphile/DNA +/− charge ratio 8
"complexation, percentage of the maximum fluorescence signal when EtBr bound to DNA in the absence of an amphiphile (plasmid DNA; [6])",Structure (SMILES),cytotoxicity as a percentage of survived cells (CVI-P cells; [3]),cytotoxicity as a percentage of survived cells (CVI-P cells; [4]),cytotoxicity as a percentage of survived cells (CVI-P cells; [5]),cytotoxicity as a percentage of survived cells (CVI-P cells; [6]),cytotoxicity as a percentage of survived cells (CVI-P cells; [7]),"complexation, percentage of the maximum fluorescence signal when EtBr bound to DNA in the absence of an amphiphile (plasmid DNA; [3])","complexation, percentage of the maximum fluorescence signal when EtBr bound to DNA in the absence of an amphiphile (plasmid DNA; [4])","complexation, percentage of the maximum fluorescence signal when EtBr bound to DNA in the absence of an amphiphile (plasmid DNA; [5])","complexation, percentage of the maximum fluorescence signal when EtBr bound to DNA in the absence of an amphiphile (plasmid DNA; [7])","transfection, result in words [1]",also measured
,"CCCCCCCC/C=C\CCCCCCCC(=O)OCC(C[N+](C)(C)C)OC(=O)CCCCCCC/C=C\CCCCCCCC.[Cl-] (centres unmarked) [DOTAP, N-(1-(2,3-dioleoyloxy)propyl)-N,N,N-trimethylammoniummethyl-sulfate, reference compound]","92,45%","92,09%","91,87%","97,89%","102,3%","86,72%","76,11%","69,15%","65,47%",,"cytotoxicity as a percentage of survived cells (D 407 cells; [3]): 85,08%; cytotoxicity as a percentage of survived cells (D 407 cells; [4]): 87,48%; cytotoxicity as a percentage of survived cells (D 407 cells; [5]): 80,32%; cytotoxicity as a percentage of survived cells (D 407 cells; [6]): 81,34%; cytotoxicity as a percentage of survived cells (D 407 cells; [7]): 76,11%; transfection efficiency [1, 3]: 0,61 β-galactosidase units per well; transfection efficiency [1, 4]: 0,9 β-galactosidase units per well; transfection efficiency [1, 5]: 15,58 β-galactosidase units per well; transfection efficiency [1, 6]: 10,5 β-galactosidase units per well; transfection efficiency [1, 7]: 3,19 β-galactosidase units per well; transfection efficiency [2, 3]: 0,7 β-galactosidase units per well; transfection efficiency [2, 4]: 4,8 β-galactosidase units per well; transfection efficiency [2, 5]: 25,05 β-galactosidase units per well; transfection efficiency [2, 6]: 19,6 β-galactosidase units per well; transfection efficiency [2, 7]: 4,92 β-galactosidase units per well"
,"CCCCCCCCCOC(=O)C1=C(C)NC(C)=C(C(=O)OCCCCCCCCC)C1c1ccc[n+](C)c1.I.[I-] [IV, 1′,4′-Dihydro-1,2′,6′-trimethyl-3′,5′-bis(nonyloxycarbonyl)-3,4′-bipyridinium iodide]",,,,,,,,,,No signal,
"97,8% and 98,4%","CCCCCCCCCCCCCCCC(=O)OCC(COC(=O)C1=C(C)NC(C)=C(C(=O)OCC(COC(=O)CCCCCCCCCCCCCCC)OC(=O)CCCCCCCCCCCCCCC)C1c1ccc[n+](C)c1)OC(=O)CCCCCCCCCCCCCCC.I.[I-] (centres unmarked) [IX, 3′,5′-Bis [(2,3-dipalmitoyloxypropoxy)carbonyl]-1′,4′-dihydro-1,2′,6′-trimethyl-3,4′-bipyridinium iodide]","83,11% and 90,48%","84,63% and 107,13%","97,34% and 120,34%","106,62% and 117,42%","100,65% and 124,54%","101,6% and 97,8%","101,6% and 97,5%","103,3% and 97,5%","98,5% and 106,1%",No signal,
,"Br.CCCCCCCCCCCCCCOC(=O)C1=C(C)NC(C)=C(C(=O)OCCCCCCCCCCCCCC)C1c1ccc[n+](CCCC)c1.[Br-] [XXI, 1-Butyl-1′,4′-dihydro-2′,6′-dimethyl-3′,5′-bis(tetradecyloxycarbonyl)-3,4′-bipyridinium bromide]",,,,,,,,,,No signal,
"45,1%","CCCCCCCCCCOC(=O)C1=C(C[n+]2ccccc2)NC(C[n+]2ccccc2)=C(C(=O)OCCCCCCCCCC)C1c1ccccc1.[Br-].[Br-] [XXII, 1,1′-{[3,5-Bis(decyloxycarbonyl)-1,4-dihydro-4-phenylpyridine-2,6-diyl]dimethylene}bispyridinium dibromide]","95,71%","87,2%","84,01%","78,2%","46,74%","77,8%","58,8%","48,1%","43,5%",No signal,
,"CCCCCCCCC=CCCCCCCCCOC(=O)C1=C(C[n+]2ccccc2)NC(C[n+]2ccccc2)=C(C(=O)OCCCCCCCCC=CCCCCCCCC)C1c1ccccc1.[Br-].[Br-] (centres unmarked) [XXVI, 1,1′-[(3,5-Dioctadec-9′-enyloxycarbonyl-4-phenyl-1,4-dihydropyridine-2,6-diyl)dimethylene]bispyridinium dibromide]",,,,,,,,,,No signal,
,"CCCCCCCCCCOC(=O)C1=C(C[N+](C)(C)CCCCCCCC)NC(C[N+](C)(C)CCCCCCCC)=C(C(=O)OCCCCCCCCCC)C1c1ccccc1.[Br-].[Br-] [XXVII, N,N′-{[3,5-Bis(decyloxycarbonyl)-1,4-dihydro-4-phenyl-pyridine-2,6-diyl]dimethylene}-N,N,N′,N′-tetramethyl-N,N′-dioctyldiammonium dibromide]","105,03%","98,37%","88,41%","24,62%","13,46%",,,,,,"transfection efficiency [1, 3]: 0,24 β-galactosidase units per well; transfection efficiency [1, 4]: 1,63 β-galactosidase units per well; transfection efficiency [1, 5]: 36,55 β-galactosidase units per well; transfection efficiency [1, 6]: 21,46 β-galactosidase units per well; transfection efficiency [1, 7]: 3,14 β-galactosidase units per well; DNA condensing capacity (mark in Table 2) (plasmid DNA): 23a/XXVII*"

Structure (SMILES),"complexation, percentage of the maximum fluorescence signal when EtBr bound to DNA in the absence of an amphiphile (plasmid DNA; [6])",cytotoxicity as a percentage of survived cells (CVI-P cells; [3]),cytotoxicity as a percentage of survived cells (CVI-P cells; [4]),cytotoxicity as a percentage of survived cells (CVI-P cells; [5]),cytotoxicity as a percentage of survived cells (CVI-P cells; [6]),cytotoxicity as a percentage of survived cells (CVI-P cells; [7]),"complexation, percentage of the maximum fluorescence signal when EtBr bound to DNA in the absence of an amphiphile (plasmid DNA; [3])","complexation, percentage of the maximum fluorescence signal when EtBr bound to DNA in the absence of an amphiphile (plasmid DNA; [4])","complexation, percentage of the maximum fluorescence signal when EtBr bound to DNA in the absence of an amphiphile (plasmid DNA; [5])","complexation, percentage of the maximum fluorescence signal when EtBr bound to DNA in the absence of an amphiphile (plasmid DNA; [7])","transfection, result in words [1]",also measured
CCCCCCCCCCCCCCCCOCCCOC(=O)C1=C(C)NC(C)=C(C(=O)OCCCOCCCCCCCCCCCCCCCC)C1c1ccc[n+](C)c1.[I-] [II],"74,8%","111,42%","101,24%","102,9%","79,08%","99,23%","92,2%","85,6%","77,2%","72,4%",No signal,
